# According to patent publication US5405847A, “4,5-dihydro-4-oxo-pyrrolo[1,2-a]quinoxalinones and corresponding aza analogs and a process for their preparation” (Asta Medica Aktiengesellschaft, priority 1992, dated 1995):
# Experiments:
# [1] = target: phosphordiesterase; assay: phosphordiesterase inhibition; type: biochemical
# Excerpt: Examples for the compounds of Formula I
# [2] = tested on: Allergic bronchoconstriction; assay: Allergic bronchoconstriction according to Konzett-Rossler (rat); type: in vivo; conditions: iv
# Protocol: (§1) The acute toxicity of the compounds of the invention in the mouse (expressed by the LD 50 mg/kg; method after Miller and Tainter: Proc. Soc. Exper. Biol. a. Med. 57 (1944) 261) is for example above 1000 mg/kg in oral application. More detailed information on the previously mentioned test models. The figures cited relate to the compounds of the invention, in particular the compounds according to Example I.
# 3. Allergic bronchoconstriction according to Konzett-Rossler (rat)
# Lit.: Naunyn-Schmiedeb. Arch. Exp. Pathol. Pharmakol. 195, 1940, p. 71-74
# [3] = tested on: Asthma-induced by domestic dust mites; assay: Asthma induced by domestic dust mites (rabbits); type: in vivo; conditions: 10 mg/ml as aerosol for 2 minutes
# Protocol: as §1
# 2. Asthma-induced by domestic dust mites (rabbits)
# Lit.: J. Allergy Clin. Immunol. 87, 1991, p. 312 Administration/dosage: 10 mg/ml as aerosol for 2 minutes
# [4] = tested on: alveolar macrophages; assay: Platelet-activating factor (Paf)-induced oxygen radical release from alveolar macrophages (guinea pig); type: cell-based; conditions: Cavia porcellus, Macrophage
# Protocol: as §1
# 3. Platelet-activating factor (Paf)-induced oxygen radical release from alveolar macrophages (guinea pig)
# [5] = tested on: mast cells; assay: Allergically-induced histamine release from mast cells (rat); type: cell-based; conditions: Mast cell
# Protocol: as §1
# 1. Allergically-induced histamine release from mast cells (rat)
# [6] = target: T1, 5-Lipoxygenase (Rattus norvegicus, UniProt P12527); assay: 5-Lipoxygenase inhibition in peritoneal macrophages (rat); type: cell-based
# T1 construct: endogenous in cells; host or cells: rat peritoneal macrophages
# T1 sequence (P12527 1-673): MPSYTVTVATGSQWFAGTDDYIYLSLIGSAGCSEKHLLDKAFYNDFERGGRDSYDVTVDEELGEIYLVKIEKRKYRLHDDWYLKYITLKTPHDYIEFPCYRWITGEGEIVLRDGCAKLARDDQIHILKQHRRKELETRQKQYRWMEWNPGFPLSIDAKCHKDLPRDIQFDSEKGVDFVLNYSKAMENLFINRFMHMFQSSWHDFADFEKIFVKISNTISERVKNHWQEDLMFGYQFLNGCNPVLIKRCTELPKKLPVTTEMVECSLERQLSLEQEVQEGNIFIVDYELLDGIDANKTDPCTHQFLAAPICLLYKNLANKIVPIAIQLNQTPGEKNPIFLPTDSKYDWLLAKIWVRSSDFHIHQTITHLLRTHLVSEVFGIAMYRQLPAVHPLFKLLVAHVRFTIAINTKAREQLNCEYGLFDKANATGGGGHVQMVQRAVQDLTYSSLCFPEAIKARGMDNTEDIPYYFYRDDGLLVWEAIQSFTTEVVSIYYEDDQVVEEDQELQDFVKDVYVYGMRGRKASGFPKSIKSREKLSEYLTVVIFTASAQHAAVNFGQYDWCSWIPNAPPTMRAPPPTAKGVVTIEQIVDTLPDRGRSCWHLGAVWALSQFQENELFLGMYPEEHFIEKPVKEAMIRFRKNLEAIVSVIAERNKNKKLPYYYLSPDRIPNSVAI
# Protocol: as §1
# 4. 5-Lipoxygenase inhibition in peritoneal macrophages (rat)
# [7] = tested on: monocytes; assay: Lipopolysaccharide-induced interleucin-1 production of monocytes (man); type: cell-based; conditions: Homo sapiens, Monocyte
# Protocol: as §1
# 2. Lipopolysaccharide-induced interleucin-1 production of monocytes (man)
# [8] = tested on: Ovalbumin-induced asthmatic late phase eosinophilia in the lung; assay: Ovalbumin-induced asthmatic late phase eosinophilia in the lung (guinea pigs); type: in vivo
# Protocol: as §1
# 1. Ovalbumin-induced asthmatic late phase eosinophilia in the lung (guinea pigs)
SMILES,IC50 [1],ED50 [2],Asthmatic late phase: inhibition [3],Bronchial hyperreactivity: inhibition [3],Bronchoconstriction: inhibition [3],IC50 [4],IC50 [5],IC50 [6],IC50 [7],inhibition of asthmatic late phase eosinophilia in the lung ([8]; 5 mg/kg/i.p.),inhibition of asthmatic late phase eosinophilia in the lung ([8]; 10 mg/kg/i.p.)
CN(C(=O)CCCCOc1ccc2[nH]c(=O)c3cccn3c2n1)C1CCCCC1 [D 20169],7.34 µM,,,,,,,,,,
"O=c1[nH]c2ccc(O)nc2n2cccc12 [Example I, 4,5-Dihydro-8-hydroxy-4-oxo-pyrido[3,2-e]pyrrolo[1,2-a]pyrazine]",32.2 µM,0.5 mg/kg,51%,51%,49%,6.1 µM,0.7 µM,12 µM,4.5 µM,67%,98%
CNC(=O)CCCOc1ccc2[nH]c(=O)c3cccn3c2n1 [Example 98],15.1 µM,,,,,,,,,,
